Measurements: US11058738B2, “Herbal preparation for accelerating wounds and skin inflammations healing, especially for treatment of herpes and acne, and its application” (WYŻSZA SZKOŁA MEDYCZNA W BIAŁYMSTOKU, priority 2015, dated 2021)

Tests used:
open wounds = test: Epithelialization and wound healing in mammals with open wounds; type: in vivo
Method: A following semi-solid preparation was prepared for the study which was obtained by mixing together: • 40% w/w Melittis melissophyllum L. from the whole plant, • 20% w/w of 96% ethyl alcohol, • 40% w/w Vaseline album—a hydrocarbon based substance used in lipophilic ointments.
The substance, etched by ethyl alcohol, is dissolved with help of heat in a smooth ointment medium for better dispersion ofbiologically active substances contained in the test extract. It could also be mixed in a cold lipophilic medium. It is important that the substance has been dissolved in the medium at the concentration below saturation.
In the study three groups of mammals with open wounds were involved:
I control group—no treatment was applied to the wound, even antiseptic one.
II group—a typical antiseptic agent was used, chlorhexidine, in accordance with a standard protocol regarding a treatment of an infected wound.
III group—the herbal preparation with a Melittis melissophyllum L. extract was used.
The herbal preparation applied in a treatment of open wounds. It was used in a similar way as described in Example I. The experiment confirmed that the herbal preparation based on Melittis melissophyllum L. definitely accelerates repair processes during the wound healing.

[1] = tested on: neutrophil white blood cells from the wound surface; test: Phagocytic activity of white blood cells (latex particles) from the healing wound surface; type: in vivo, mammals
Method: Phagocytic activity of white blood cells was assessed using phagocytic index (PI)—a percentage of phagocytes containing absorbed latex particles, and an amount of phagocytes (IF)—the average number of particles per phagocyte.
The established phagocytic activity of neutrophil white blood cells from the wound surface in different periods of the wound healing, i.e. an increase in phagocytic index and number of phagocytes due to presence of the Melittis melissophyllum L. extract, is shown in Table 2. It was found for the first time that the Melittis melissophyllum L. extract has a high therapeutic activity during a wound healing period in all stages of the wound healing, accelerating the wound repair process and cells proliferation, therefore ensuring the complete wound healing much earlier.

## [H]/N=C(\N/C(=N/[H])NCCCCCCNC(=N)NC(=N)Nc1ccc(Cl)cc1)Nc1ccc(Cl)cc1 [Chlorhexidine, chlorhexidine]
Open wounds
  complete epithelialization of the wound surface: 12-th or 13-th
Open wounds; topical
  Beginning epitelialization: 3.9 ± 0.4 24-hours
  Beginning of rejection of the crust: 7.6 ± 0.5 24-hours
  Complete wound healing: 11.25 ± 0.19 24-hours
  Full crust rejection: 10.5 ± 0.3 24-hours
[1]; 3 day after granulation
  IF (amount of phagocytes, average number of particles per 1 phagocyte): 10.0 ± 2.5
  PI (phagocytic index, percentage of phagocytes containing latex particles): 61.60 ± 9.49%
[1]; 5 day after granulation
  IF (amount of phagocytes, average number of particles per 1 phagocyte): 14.0 ± 3.0
  PI (phagocytic index, percentage of phagocytes containing latex particles): 59.01 ± 4.58%
[1]; 7 day after granulation
  IF (amount of phagocytes, average number of particles per 1 phagocyte): 11.0 ± 3.0
  PI (phagocytic index, percentage of phagocytes containing latex particles): 48.20 ± 5.51%
